Assay results published in article PMC11547375, “Peptide Dimerization as a Strategy for the Development of Antileishmanial Compounds” (Molecules, 2024).
Read-outs that look alike come from different tables or passages of the source. No end group written: not given here.

Legend:
[1] = system: L. mexicana promastigotes; assay: microbe, parasite or virus in culture; assay type: cell-based, Leishmania mexicana; settings: ± standard deviation, SD, read-out: IC50 Promastigote
Description: (§1) The L. amazonensis promastigotes (MPRO/BR/1972/M1841-LV-79) were grown in LIT culture medium, while the L. mexicana promastigotes (MNYC/BZ/62/M379) were cultivated in Schneider’s medium (Sigma-Aldrich, St. Louis, MO, USA), supplemented with 10% heat-inactivated fetal bovine serum (FBS; Gibco/Invitrogen, Waltham, MA, USA) at 28 °C until reaching the mid-log phase of growth. Macrophages were sourced from the peritoneal cavity of Swiss mice using the methodology outlined by de Almeida et al.. Anti-promastigote and anti-amastigote assays of L. mexicana and L. amazonensis and their cytotoxic activity were conducted as previously described. IC50 is the concentration capable of killing 50% of the parasites. The drug concentration that inhibited 50% of cell growth was denoted as the 50% cytotoxic concentration (CC50). Cytotoxicity for the host cells and the protozoan species was compared and expressed as the selectivity index (SI), calculated as the ratio of the CC50 for macrophages to the IC50 for the protozoan species.

L. mexicana amastigotes = assay: microbe, parasite or virus in culture; assay type: cell-based, Leishmania mexicana; settings: ± standard deviation, SD
Description: (§2) Macrophages were sourced from the peritoneal cavity of Swiss mice using the methodology outlined by de Almeida et al.. Anti-promastigote and anti-amastigote assays of L. mexicana and L. amazonensis and their cytotoxic activity were conducted as previously described. […] Cytotoxicity for the host cells and the protozoan species was compared and expressed as the selectivity index (SI), calculated as the ratio of the CC50 for macrophages to the IC50 for the protozoan species.

peritoneal macrophages = assay: Cytotoxicity in peritoneal macrophages; assay type: cell-based; settings: peritoneal macrophages of Swiss mice
Description: as §1

[2] = system: L. amazonensis promastigotes; assay: microbe, parasite or virus in culture; assay type: cell-based, Leishmania amazonensis; settings: read-out: IC50 Promastigote
Description: as §1

[3] = system: L. amazonensis amastigotes; assay: microbe, parasite or virus in culture; assay type: cell-based, Leishmania amazonensis; settings: read-out: IC50 Amastigote
Description: as §2

[4] = system: L. amazonensis promastigotes; settings: read-out: IC50 Promastigote with active fetal bovine serum, LIT medium with active (not heat-inactivated) fetal bovine serum, ± standard deviation, SD
Description: Therefore, stability studies were carried out with these molecules in the presence of the Leishmania parasite in its promastigote form, with active fetal bovine serum added to the culture medium. […] Assays were performed using the TSHa and (TSHa)2K peptides.
Peptide stability was investigated using anti-promastigote assays (as described by Costa et al. 2023 [58]) with L. amazonensis and LIT culture media with fetal bovine serum.

[5] = POPC–POPS–Erg (16:3:1) LUVs
Description: To evaluate the effect of monomeric and dimeric peptides on the lipid membrane and relate it to the mechanism of action, vesicle permeabilization studies were carried out for evaluating the possible mechanisms on membrane. The leakage assays were carried out with carboxyfluorescein (CF) internalized in the mimetic membranes. The vesicles of POPC–Chol (4:1) and POPC–POPS (phosphatidylserine)–ergosterol (16:3:1) were employed. These mimetic membranes were designed considering the compositions of phospholipids and steroids in the host membrane and in the Leishmania membrane, respectively. The constitution of the cell membrane of Leishmania varies according to the morphology of the parasite and its stage of development, but is more negative than the cell membranes of mammals, which allow for cationic AMPs to bind more easily. Our studies were based on the membrane of the promastigote form, which is characterized by the presence of mainly phosphatidylcholine, phosphatidylethanolamine, phosphatidylinositol, phosphatidylserine, and ergosterol, in addition to diglycerides and glycolipids containing mannose and galactose. In the amastigote form of Leishmania, there is a higher concentration of fatty acids and cholesterol, while triglycerides and ergosterol decrease during the transition from promastigotes to amastigotes. In addition, the main phospholipids found are sphingomyelin and phosphatidylserine, with lower proportions of phosphatidylinositol and lysophosphatidylethanolamine.
Large unilamellar vesicles (LUVs) composed of POPC (1-palmitoyl-2-oleoyl-sn-glycero-3-phosphatidylcholine) and cholesterol (Chol) (4:1), or POPC, POPS (1-palmitoyl-2-oleoyl-sn-glycero-3-serine), and ergosterol (Erg) (16:3:1) were prepared according to the methods described by Lorenzón et al.. […] We employed a Hitachi U-2000 spectrophotometer (TSHa) (Hitachi, Tokyo, Japan) or a Fluorolog-3 FL3-122 spectrofluorometer (Horiba Jobin Yvon, Glasgow, UK) ((TSHa)2K) for analyses.

LmCPB2.8ΔCTE (CPB) = LmCPB2.8ΔCTE (CPB) (Leishmania mexicana, UniProt P36400); assay: Cysteine protease (CPB) enzyme inhibition assay; assay type: biochemical
Sequence of LmCPB2.8ΔCTE (CPB) (P36400 126-343, stated change not applied): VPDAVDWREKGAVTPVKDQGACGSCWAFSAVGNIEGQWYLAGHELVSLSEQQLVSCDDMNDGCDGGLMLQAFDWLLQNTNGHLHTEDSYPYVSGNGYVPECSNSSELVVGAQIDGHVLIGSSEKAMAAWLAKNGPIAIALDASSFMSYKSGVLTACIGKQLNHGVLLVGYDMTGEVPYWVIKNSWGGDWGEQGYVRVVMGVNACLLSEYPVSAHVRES
Description: The CPB inhibition experiments were performed as described previously by Moreira et al.. The results are expressed as mean ± standard deviation of two independent replicates as the half maximal CPB enzyme inhibitory concentration (IC50-CPB) using Bioestat 5.0 software.

## FLSGIVGMLGKLF-NH2 [TSHa]
[1]
  IC50: 6.3 ± 0.85 µM
L. mexicana amastigotes; 24 h of treatment, read-out: IC50 Amastigote 24 h of Treatment
  IC50: 5 ± 0.05 µM
L. mexicana amastigotes; 48 h of treatment, read-out: IC50 Amastigote 48 h of Treatment
  IC50: 8.1 ± 0.45 µM
Peritoneal macrophages; Table 1, ± standard deviation, SD
  CC50 Peritoneal Macrophages: >1000 ± 0.01 µM
Peritoneal macrophages; Table 2
  CC50 Peritoneal Macrophage: >1000 ± 1.8 µM
[2]
  IC50: 8 ± 0.1 µM
[3]
  IC50: 6.8 ± 2.82 µM
[4]
  IC50: 20 ± 2.15 µM
[5]; peptide 1 µmol L^−1, fluorescence
  CF release: around 70%
[5]; peptide 5 µmol L^−1, fluorescence
  CF release: ~85%
LmCPB2.8ΔCTE (CPB); 20 μmol L^−1, mean ± SD of two independent replicates, SD
  Inhibitory Activity at 20 μmol L^−1: 94.22 ± 1.54 %
LmCPB2.8ΔCTE (CPB); 20 μmol L^−1, mean ± SD of two independent replicates, read-out: Inhibitory Activity at 20 μmol L^−1
  inhibition at 20 µM: > 90%
LmCPB2.8ΔCTE (CPB); mean ± SD of two independent replicates, SD
  IC50: 9.2 ± 2.2 µM
